Reference: US10774064B2 (Cadent Therapeutics, Inc., priority 2016, dated 2020)
Blank lines part the entries; values can stand above or below the compound they belong to.

Target: T1, small-conductance Ca2+-activated K+ channels (SK channels, subtype 2) (Homo sapiens, UniProt Q9H2S1)
T1 construct: expressed in transfected cells; host or cells: HEK293
Assay: whole-cell patch-clamp of ionic current through SK2 channels in HEK293 cells (SC100)
Type: cell-based
Conditions: whole-cell patch-clamp, HEK293 cells expressing SK2 channels; concentration that increases the basal current by 100%
Method in brief: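 SC100, the concentration doubling basal current (a 100% increase), was taken from SK2 currents recorded by whole-cell patch-clamp in SK2-expressing HEK293 cells.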

Compound: Cc1csc(-c2nc(NC3CCC(F)(F)CC3)cc(N3CCC(CO)C3)n2)n1 (stereo not drawn) [IN10882-020-P1]
SC100 (μM): ++ (++ means 200 nM-1000 nM)

Compound: Cc1csc(-c2nc(NC3CCC(F)(F)CC3)cc(NC3COC3)n2)n1 [IN10882-040-P1]
SC100 (μM): + (+ means >1 uM)

Compound: Cc1csc(-c2nc(NC3CCC(F)(F)CC3)cc(N(C)C3COC3)n2)n1 [IN10882-043-P1]
SC100 (μM): + (+ means >1 uM)

Compound: Cc1ccn(-c2nc(C(C)O)cc(N3CCCCC3)n2)n1 (stereo not drawn) [IN10882-055-P1]
SC100 (μM): + (+ means >1 uM)

Compound: Cc1ccn(-c2nc(NC(C)C)cc(N3CCOC(CO)C3)n2)n1 (stereo not drawn) [IN10882-057-P1]
SC100 (μM): + (+ means >1 uM)

Compound: Cc1ccn(-c2nc(N3CCCCCC3)cc(N3CCOC(CO)C3)n2)n1 (stereo not drawn) [IN10882-068-P1]
SC100 (μM): + (+ means >1 uM)

Compound: Cc1ccn(-c2nc(N3CCCCC3)cc(N3CCOC(CO)C3)n2)n1 (stereo not drawn) [IN10882-072-P1, (4-(2-(3-methyl-1H-pyrazol-1-yl)-6-(piperidin-1-yl)pyrimidin-4-yl)morpholin-2-yl) methanol]
SC100 (μM): + (+ means >1 uM)

Compound: Cc1ccn(-c2nc(NC(C)(C)C)cc(N3CCOC(CO)C3)n2)n1 (stereo not drawn) [IN10882-083-P1]
SC100 (μM): + (+ means >1 uM)

Compound: Cc1cc(C)n(-c2cc(NC3CCC(F)(F)CC3)cc(N3CCOCC3)c2)n1 [IN10963-024-P1, N-(4,4-difluorocyclohexyl)-3-(3,5-dimethyl-1H-pyrazol-1-yl)-5-morpholinoaniline]
SC100 (μM): + (+ means >1 uM)

Compound: Cc1cc(C)n(-c2nc(NC3CCC(F)CC3)cc(N3CCOCC3)n2)n1 (stereo not drawn) [IN10963-049-P1]
SC100 (μM): ++ (++ means 200 nM-1000 nM)

Compound: Cc1csc(-c2nc(NC3CCC(F)(F)CC3)cc(N3CCOC(COC(C)C)C3)n2)n1 (stereo not drawn) [IN10964-007-P1]
SC100 (μM): +++ (+++ means <200 nM)

Compound: Cc1csc(-c2nc(NC3CCC(F)(F)CC3)cc(N3CCOCC3COC(C)C)n2)n1 (stereo not drawn) [IN10965-091-P1, N-(4,4-difluorocyclohexyl)-6-(3-(isopropoxymethyl)morpholino)-2-(4-methylthiazol-2-yl)pyrimidin-4-amine]
SC100 (μM): + (+ means >1 uM)

Compound: Cc1cc(C)n(-c2ncc(N3CCOCC3)c(NC3CCC(F)(F)CC3)n2)n1 [IN10966-011-P1, N-(4,4-difluorocyclohexyl)-2-(3,5-dimethyl-1H-pyrazol-1-yl)-5-morpholinopyrimidin-4-amine]
SC100 (μM): + (+ means >1 uM)

Compound: Cc1csc(-c2nc(NC3CCCC(F)(F)C3)cc(N3CCOCC3)n2)n1 (stereo not drawn) [IN10966-028-P1]
SC100 (μM): ++ (++ means 200 nM-1000 nM)

Compound: Cc1cc(NC2CC=C(F)CC2)nc(-c2nc(C)cs2)n1 (stereo not drawn) [IN10966-057-P2, N-(4-fluorocyclohex-3-en-1-yl)-6-methyl-2-(4-methylthiazol-2-yl)pyrimidin-4-amine]
SC100 (μM): ++ (++ means 200 nM-1000 nM)

Compound: Cc1ccc(-c2nc(NC3CCC(F)(F)CC3)cc(N3CCOCC3)n2)n1C [IN10971-059-P1, N-(4,4-difluorocyclohexyl)-2-(1,5-dimethyl-1H-pyrrol-2-yl)-6-morpholino pyrimidin-4-amine]
SC100 (μM): + (+ means >1 uM)

Compound: FC1(F)CCC(Nc2cc(N3CCOCC3)nc(-c3ccco3)n2)CC1 [IN10971-060-P1, N-(4,4-difluorocyclohexyl)-2-(furan-2-yl)-6-morpholinopyrimidin-4-amine]
SC100 (μM): + (+ means >1 uM)

Compound: Cc1ccc(-c2nc(NC3CCC(F)(F)CC3)cc(N3CCOCC3)n2)o1 [IN10971-077-P1, N-(4,4-difluorocyclohexyl)-2-(5-methylfuran-2-yl)-6-morpholinopyrimidin-4-amine]
SC100 (μM): + (+ means >1 uM)

Compound: Cc1cc(C)n(-c2nc(NC3CCC(F)(F)CC3)cc(N3CCOC(C#N)C3)n2)n1 (stereo not drawn) [IN10971-081-P1, 4-(6-((4,4-difluorocyclohexyl)amino)-2-(3,5-dimethyl-1H-pyrazol-1-yl)pyrimidin-4-yl) morpholine-2-carbonitrile]
SC100 (μM): ++ (++ means 200 nM-1000 nM)

Compound: Cc1cc(C)n(-c2nc(C(C)O)cc(N(C)C3CCCCC3)n2)n1 (stereo not drawn) [IN10973-004-P1]
SC100 (μM): + (+ means >1 uM)

Compound: Cc1cc(C)n(-c2nc(NC3CCCC(C(F)(F)F)C3)cc(C(C)O)n2)n1 (stereo not drawn) [IN10973-005-P1]
SC100 (μM): + (+ means >1 uM)

Compound: Cc1cc(C)n(-c2nc(NC3CCCCC3)cc(C(C)O)n2)n1 (stereo not drawn) [IN10973-008-P1]
SC100 (μM): + (+ means >1 uM)

Compound: COC(=O)N1CCC(Oc2cc(NC3CCC(F)(F)CC3)nc(-c3nc(C)cs3)n2)C1 (stereo not drawn) [IN10973-025-P1]
SC100: 1 µM

Compound: Cc1csc(-c2nc(NC3(C)CCCCC3)cc(N3CCOCC3)n2)n1 [IN10973-099-P1]
SC100 (μM): + (+ means >1 uM)

Compound: Cc1cc(C)n(-c2nc(NC3CCC(F)(F)CC3)cc(N3CCOC(COC(F)F)C3)n2)n1 (stereo not drawn) [IN10984-022-P1]
SC100 (μM): ++ (++ means 200 nM-1000 nM)

Results, then the compound that gave them:

SC100 (μM): + (+ means >1 uM)
Compound: Cc1cc(C)n(-c2nc(NC3CCC(F)(F)CC3)cc(C(C)OC(C)C)n2)n1 (stereo not drawn) [IN10963-068-P1, N-(4,4-difluorocyclohexyl)-2-(3,5-dimethyl-1H-pyrazol-1-yl)-6-(1-isopropoxyethyl)pyrimidin-4-amine]

SC100 (μM): + (+ means >1 uM)
Compound: Cc1cc(C)n(-c2nc(CCO)cc(NC3CCC(F)(F)CC3)n2)n1 [IN10963-077-P1, 2-(6-((4,4-difluorocyclohexyl)amino)-2-(3,5-dimethyl-1H-pyrazol-1-yl)pyrimidin-4-yl) ethan-1-ol]

SC100 (μM): ++ (++ means 200 nM-1000 nM)
Compound: Cc1cc(C)n(-c2nc(NC3CCC(F)(F)CC3)cc(N3CCOC(COC(C)C)C3)n2)n1 (stereo not drawn) [IN10964-008-P1]

SC100 (μM): + (+ means >1 uM)
Compound: Cc1cc(C)n(-c2nc(NC3CCC(F)(F)CC3)cc(C(C)N(C)C)n2)n1 (stereo not drawn) [IN10964-046-P1, N-(4,4-difluorocyclohexyl)-2-(3,5-dimethyl-1H-pyrazol-1-yl)-6-(1-(dimethylamino)ethyl)pyrimidin-4-amine]

SC100 (μM): ++ (++ means 200 nM-1000 nM)
Compound: Cc1cc(C)n(-c2nc(NC3CCC(F)(F)CC3)cc(N3CCOCC3COC(C)C)n2)n1 (stereo not drawn) [IN10965-089-P1]

SC100 (μM): + (+ means >1 uM)
Compound: Cc1cc(C)n(-c2cc(C)c(NC3CCC(F)(F)CC3)nn2)n1 [IN10966-083-P1, N-(4,4-difluorocyclohexyl)-6-(3,5-dimethyl-1H-pyrazol-1-yl)-4-methylpyridazin-3-amine]

SC100 (μM): + (+ means >1 uM)
Compound: COCCOc1cc(NC2CCC(F)(F)CC2)nc(-n2ccc(C)n2)n1 [IN10966-093-P1]

SC100 (μM): + (+ means >1 uM)
Compound: Cc1ccn(-c2nc(NC3CCC(F)(F)CC3)cc(OCCN(C)C)n2)n1 [IN10966-095-P1]

SC100 (μM): + (+ means >1 uM)
Compound: Cc1ccnn1-c1cc(C#N)cc(NC2CCC(F)(F)CC2)n1 [IN10967-061-P1, 2-((4,4-difluorocyclohexyl)amino)-6-(5-methyl-1H-pyrazol-1-yl)isonicotinonitrile]

SC100 (μM): ++ (++ means 200 nM-1000 nM)
Compound: Cc1ccn(-c2cc(CN)cc(NC3CCC(F)(F)CC3)n2)n1 [IN10967-063-P1, 4-(aminomethyl)-N-(4,4-difluorocyclohexyl)-6-(3-methyl-1H-pyrazol-1-yl)pyridin-2-amine]

SC100 (μM): + (+ means >1 uM)
Compound: Cc1csc(-c2nc(NC3CCC(F)(F)CC3)cc(C(O)c3ccccc3)n2)n1 (stereo not drawn) [IN10971-033-P1, (6-((4,4-difluorocyclohexyl)amino)-2-(4-methylthiazol-2-yl)pyrimidin-4-yl) (phenyl) methanol]

SC100 (μM): + (+ means >1 uM)
Compound: Cc1ccc(-c2nc(NC3CCC(F)(F)CC3)cc(C(C)O)n2)o1 (stereo not drawn) [IN10971-088-P1, 1-(6-((4,4-difluorocyclohexyl)amino)-2-(5-methylfuran-2-yl)pyrimidin-4-yl) ethan-1-ol]

SC100 (μM): + (+ means >1 uM)
Compound: Cc1csc(-c2nc(NC3CCC(F)(F)CC3)cc(C(C)N3CCOCC3)n2)n1 (stereo not drawn) [IN10973-028-P1, N-(4,4-difluorocyclohexyl)-2-(4-methylthiazol-2-yl)-6-(1-morpholinoethyl)pyrimidin-4-amine]

SC100 (μM): + (+ means >1 uM)
Compound: FC1(F)CCC(Nc2cc(N3CCOCC3)nc(-n3cccn3)n2)CC1 [IN10973-038-P1, N-(4,4-difluorocyclohexyl)-6-morpholino-2-(1H-pyrazol-1-yl)pyrimidin-4-amine]

SC100 (μM): + (+ means >1 uM)
Compound: Cc1ccn(-c2nc(NC3CCC(F)(F)CC3)cc(S(C)(=O)=O)n2)n1 [IN10973-041-P1]

SC100 (μM): + (+ means >1 uM)
Compound: Cc1csc(-c2nc(NC3CCC(F)(F)CC3)cc(C(C)S(C)(=O)=O)n2)n1 (stereo not drawn) [IN10973-053-P1, N-(4,4-difluorocyclohexyl)-6-(1-(methylsulfonyl)ethyl)-2-(4-methylthiazol-2-yl)pyrimidin-4-amine]

SC100 (μM): + (+ means >1 uM)
Compound: Cc1ccn(-c2nc(NC3CCC(F)(F)CC3)cc(C(C)S(C)(=O)=O)n2)n1 (stereo not drawn) [IN10973-060-P1, N-(4,4-difluorocyclohexyl)-2-(3-methyl-1H-pyrazol-1-yl)-6-(1-(methylsulfonyl)ethyl)pyrimidin-4-amine]

SC100 (μM): + (+ means >1 uM)
Compound: COC(C)c1cc(NC2CCC(F)(F)CC2)nc(-n2ccc(C)n2)n1 (stereo not drawn) [IN10973-083-P1, N-(4,4-difluorocyclohexyl)-6-(1-methoxyethyl)-2-(3-methyl-1H-pyrazol-1-yl)pyrimidin-4-amine]

SC100 (μM): + (+ means >1 uM)
Compound: Cc1ccn(-c2cc(NC3CCC(F)(F)CC3)cc(N3CCOCC3)n2)n1 [IN10973-098-P1, N-(4,4-difluorocyclohexyl)-2-(3-methyl-1H-pyrazol-1-yl)-6-morpholinopyridin-4-amine]

SC100 (μM): + (+ means >1 uM)
Compound: Cc1ccn(-c2nc(NC3CCC(F)(F)CC3)cc(N(C)C3CCOC3)n2)n1 (stereo not drawn) [IN10984-043-P1]
